{
  "source": "patent US20150018369A1",
  "about": "(priority 2012, published 2015)",
  "key": {"DBT cells": {"test_system": "DBT cells", "test": "Killing of DBT mouse astrocytoma cells", "type": "cell-based", "settings": "FIG. 10c", "source_text": "Cannabinoid receptors are known to regulate cell migration."}, "GPR124": {"target": "T1, GPR124 (Homo sapiens, UniProt Q96PE1)", "T1 construct": "endogenous in cells; host or cells: T98g human astrocytoma cells", "T1 sequence (Q96PE1 34-1338)": "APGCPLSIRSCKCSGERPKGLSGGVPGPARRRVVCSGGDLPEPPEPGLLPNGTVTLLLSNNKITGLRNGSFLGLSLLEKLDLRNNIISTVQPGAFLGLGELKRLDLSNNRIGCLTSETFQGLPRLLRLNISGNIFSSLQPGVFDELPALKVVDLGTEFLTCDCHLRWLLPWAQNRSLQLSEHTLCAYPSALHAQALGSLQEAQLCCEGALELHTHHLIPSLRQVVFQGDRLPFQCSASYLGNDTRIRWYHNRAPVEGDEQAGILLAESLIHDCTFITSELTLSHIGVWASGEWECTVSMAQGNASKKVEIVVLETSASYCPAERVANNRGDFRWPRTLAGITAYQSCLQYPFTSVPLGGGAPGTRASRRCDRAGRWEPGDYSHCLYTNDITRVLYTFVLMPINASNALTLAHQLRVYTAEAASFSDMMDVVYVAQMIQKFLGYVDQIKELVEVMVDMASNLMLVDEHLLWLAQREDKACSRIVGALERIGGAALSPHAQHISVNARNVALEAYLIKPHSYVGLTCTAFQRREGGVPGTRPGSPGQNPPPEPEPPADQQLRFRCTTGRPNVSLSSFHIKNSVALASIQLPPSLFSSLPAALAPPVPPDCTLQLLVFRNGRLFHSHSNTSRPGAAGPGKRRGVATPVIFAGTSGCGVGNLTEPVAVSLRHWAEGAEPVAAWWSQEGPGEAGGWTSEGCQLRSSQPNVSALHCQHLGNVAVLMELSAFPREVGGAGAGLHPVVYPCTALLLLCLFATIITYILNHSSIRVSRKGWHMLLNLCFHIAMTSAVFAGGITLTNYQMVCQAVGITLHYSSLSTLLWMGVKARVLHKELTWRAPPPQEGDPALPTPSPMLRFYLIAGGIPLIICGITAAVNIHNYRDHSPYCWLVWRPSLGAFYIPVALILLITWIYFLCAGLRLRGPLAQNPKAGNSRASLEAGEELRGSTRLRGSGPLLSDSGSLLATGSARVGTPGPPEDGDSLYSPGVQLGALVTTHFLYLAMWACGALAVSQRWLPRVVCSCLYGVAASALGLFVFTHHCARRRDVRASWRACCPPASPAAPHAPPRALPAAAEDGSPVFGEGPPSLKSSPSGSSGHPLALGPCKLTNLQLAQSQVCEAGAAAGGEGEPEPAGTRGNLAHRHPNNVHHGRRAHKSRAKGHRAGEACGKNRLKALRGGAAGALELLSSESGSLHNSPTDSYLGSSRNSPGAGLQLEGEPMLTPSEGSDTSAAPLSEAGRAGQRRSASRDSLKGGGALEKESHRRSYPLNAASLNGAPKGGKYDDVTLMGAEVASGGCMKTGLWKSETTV", "test": "ST-11 toxicity in T98 g cells after siRNA knock-down of GPR124", "type": "cell-based", "settings": "ST-11 1 μM, siRNA targeting GPR124, viability after three days", "description": "To determine which of the gene candidate encodes for AI receptors, an siRNA approach is used to knock down each candidate individually to determine which one prevents the toxic effect of ST-11 and thus encodes for AI receptors. The prediction is that knocking down AI receptors prevents the cell death induced by ST-11. T98 g cells were treated with siRNA targeting each of the 39 GPCR gene candidates individually. The first experiment was designed to knock down each GPCR candidate liming a mixture of 3 siRNAs, and thus maximize genetic targeting efficacy. Thus, cells were incubated with siRNA mixtures and then treated with ST-11 (1 μM) and cell viability measured after three days. Only one mixture of siRNAs (that targeting GPR124) decreased the toxicity of ST-11. […] Two of the three siRNAs knocked-down GPR124 expression by more than 80% over 4 days (FIG. 5b). […] The killing effect induced by ST-11 is mediated by GPR124, an AI receptor."}, "AI receptors": {"test_system": "AI receptors", "test": "cAMP production in HEK293 cells", "type": "cell-based, human", "source_text": "When comparing the overall amino acid sequence of GPR124 to that of CB1 and CB2 receptors no significant homology was found. However, when focusing the comparison to the amino acid sequence encoding for the third transmembrane domains of GPR124 and CB2 receptors, 84% homology was found (FIG. 5a). […] Therefore, it is likely that ST-1, ST-11, and other AI compounds interact directly with the third transmembrane domain of GPR124. To determine the signaling mechanism of AI receptors, effect of ST-11 in HEX293 cells, which express GPR124 endogenously and commonly used to study GPCR pharmacology and signaling pathway, was tested."}, "[1]": {"test_system": "mouse microglia in primary culture", "test": "IP production in mouse microglia", "type": "cell-based"}, "[2]": {"test_system": "mouse microglia in primary culture", "test": "cAMP production in mouse microglia", "type": "cell-based"}, "T98 g cells": {"test_system": "T98 g cells", "test": "Signaling pathway and cell death in T98 g cells", "type": "cell-based, human", "description": "To determine the signaling pathway activated by AI receptors, T98 g cells were treated and changes in select kinase and mediatior of cell death were measured."}},
  "data": [
    {"smiles": "CCn1c(C)c(C(=O)c2ccc(C)c3ccccc23)c2ccccc21", "note": "[ST-11]", "values": [
      {"measurement": "killing of DBT cells", "setting": "DBT cells", "result": "kills DBT cells"},
      {"measurement": "ST-11-induced killing of T98 g cells when GPR124 mRNA expression is reduced", "setting": "GPR124", "result": "reduced"},
      {"measurement": "cAMP production", "setting": "AI receptors", "result": "inhibition of cAMP production"},
      {"measurement": "IP production", "setting": "[1]", "result": "does not stimulate or inhibit IP production"},
      {"measurement": "cAMP production stimulated by Isoproterenol", "setting": "[2]", "result": "inhibits cAMP production"},
      {"measurement": "cell death (cell number, nuclear fragmentation, cell blebbing)", "setting": "T98 g cells; after 48 hrs", "result": "followed by cell death"},
      {"measurement": "PARP cleavage", "setting": "T98 g cells; within hours", "result": "cleaves PARP"},
      {"measurement": "activation of PLK-1", "setting": "T98 g cells; within hours", "result": "induces the activation of PLK-1"},
      {"measurement": "caspase 3 activation", "setting": "T98 g cells; within hours", "result": "caspase 3 activation"}
    ]}
  ]
}
